{"source": "patent US20250154358A1", "about": "“ORGANIC DYE COMPOSITION, AND SPRAY AGENT COMPRISING SAME” (PANASONIC INTELLECTUAL PROPERTY MANAGEMENT CO., LTD., priority 2022, published 2025)", "key": {"Staphylococcus aureus": {"system": "Staphylococcus aureus", "test": "Color change observation after spraying on bacterial liquid (Staphylococcus aureus)", "format": "cell-based", "conditions": "detection of S. aureus; statement in the discussion"}, "E. coli": {"system": "E. coli", "test": "Color change observation after spraying on bacterial liquid (E. coli)", "format": "cell-based", "conditions": "detection of E. coli; statement in the discussion", "method": "100 μL of a bacterial liquid (E. coli, […]) was added dropwise onto a slide glass. Then, a sample solution (organic dye composition) of each of Examples and Comparative Examples was placed in a spray bottle (φ39×147 mm, capacity 100 ml), and sprayed (one push) to the bacterial liquid on the slide glass. Thereafter, after leaving for 15 minutes, the following fluorescence observation and color change observation were performed. • Fluorescence observation (visual visibility)\nFor fluorescence observation, the sprayed part was irradiated with an LED light (530 nm output, color: green), and visual observation was performed through a red filter. The evaluation criteria were as follows. • good: Emission of the solution can be clearly visually recognized • fair: Emission of the solution can be visually recognized but very weak • poor: Emission of the solution cannot be visually recognized • Color change • Color change was visually observed and evaluated according to the following criteria: • good: Color change of the solution can be clearly visually recognized • fair: Color change of the solution can be visually recognized but very weak • poor: Color change of the solution cannot be visually recognized or no color change occurs"}}, "data": [{"smiles": "CC(C)COC(=O)Oc1ccc2nc3ccc(=O)cc-3oc2c1", "note": "[Formula (4)]", "values": [{"measurement": "color change, compared with the dye represented by Formula (2)", "setting": "Staphylococcus aureus", "result": "more clearly visually recognized"}, {"measurement": "color change, compared with the dye represented by Formula (2)", "setting": "E. coli", "result": "more clearly visually recognized"}]}]}
